Data as given in ChEMBL document CHEMBL1156435, “Evidence for the involvement of carbon-centered radicals in the induction of apoptotic cell death by artemisinin compounds” (J Biol Chem, 2007).
pIC50: −log10 of the molar value. Calls of active or inactive are those of the source. No cut-off for these calls is given here.

Legend:
Jurkat = experiment: Cytotoxicity against human Jurkat cells after 72 hrs by MTT assay; assay type: functional, cell-based
HL-60 [1] = experiment: Induction of apoptosis in human HL60 cells assessed as mitochondrial membrane depolarization at 10 uM after 24 hrs by flow cytometry in presence of Z-VAD-fmk; assay type: functional, cell-based
HL-60 [2] = experiment: Induction of apoptosis in human HL60 cells assessed as increase in sub-G0/G1 population at 1 uM after 24 hrs by flow cytometry; assay type: functional
PBMC [3] = experiment: Cytotoxicity against human PBMC after 72 hrs by MTT assay; assay type: cell-based
HL-60 [4] = experiment: Cytotoxicity against human HL60 cells assessed as LDH release after 72 hrs; assay type: functional, cell-based; conditions: HL-60, 72 h
HL-60 [5] = experiment: Induction of apoptosis in human HL60 cells assessed as pyknotic nuclear fragments at 10 uM after 24 hrs; assay type: functional, cell-based
HL-60 [6] = experiment: Induction of apoptosis in human HL60 cells assessed as pyknotic nuclear fragments at 10 uM after 24 hrs in presence of Z-VAD-fmk; assay type: functional, cell-based
HL-60 [7] = experiment: Reversal of induction of apoptosis in human HL60 cells assessed as formation of sub-G0/G1 population at 10 uM after 24 hrs by flow cytometry in presence of Z-VAD-fmk; assay type: functional, cell-based
HL-60 [8] = experiment: Reversal of induction of apoptosis in human HL60 cells assessed as inhibition of caspase 3 activation at 1 uM after 24 hrs by Western blotting in presence of Z-VAD-fmk; assay type: functional, cell-based
HL-60 [9] = experiment: Cytotoxicity against human HL60 cells after 6 hrs by MTT assay; assay type: functional, cell-based; conditions: HL-60, 6 h
HL-60 [10] = experiment: Cytotoxicity against human HL60 cells after 16 hrs by MTT assay; assay type: functional, cell-based; conditions: HL-60, 16 h
HL-60 [11] = experiment: Cytotoxicity against human HL60 cells after 72 hrs by MTT assay; assay type: functional, cell-based; conditions: HL-60, 72 h
HL-60 [12] = experiment: Induction of apoptosis in human HL60 cells assessed as activation of caspase 7 by Western blotting; assay type: functional, cell-based
HL-60 [13] = experiment: Cytotoxicity against human HL60 cells after 24 hrs by MTT assay; assay type: functional, cell-based; conditions: HL-60, 24 h
HL-60 [14] = experiment: Induction of apoptosis in human HL60 cells assessed as activation of caspase 3 by Western blotting; assay type: functional, cell-based
[15] = Stability in human HL60 cells assessed as percentage drug remaining at 10 uM after 16 hrs; assay type: ADME, cell-based; conditions: HL-60 cells, read-out: Activity
[16] = Stability in human PBMC assessed as percentage drug remaining at 10 uM after 24 hrs; assay type: ADME, cell-based; conditions: read-out: Activity
[17] = Stability in human HL60 cells assessed as percentage drug remaining at 10 uM after 24 hrs; assay type: ADME, cell-based; conditions: HL-60 cells, read-out: Activity
HL-60 [18] = experiment: Stability in human HL60 cells assessed as formation of 10-beta-(p-bromophenoxy)-dihydroartemisinin tetrahydrofuran acetate at 10 uM after 24 hrs; assay type: ADME, cell-based; conditions: hl-60, 24 h
HL-60 [19] = experiment: Induction of apoptosis in human HL60 cells assessed as increase in sub-G0/G1 population at 1 uM after 16 hrs by flow cytometry; assay type: functional
HL-60 [20] = experiment: Induction of apoptosis in human HL60 cells assessed as mitochondrial membrane depolarization at 1.0 uM after 12 hrs by flow cytometry; assay type: functional
PBMC [21] = experiment: Induction of apoptosis in human PBMC assessed as mitochondrial membrane depolarization at 0.1 to 100 uM after 24 hrs; assay type: functional, cell-based
HL-60 [22] = experiment: Induction of apoptosis in human HL60 cells assessed as mitochondrial membrane depolarization at 1.0 uM after 24 hrs by flow cytometry; assay type: functional

## C[C@H]1[C@@H](O)O[C@@H]2O[C@@]3(C)CC[C@H]4[C@H](C)CC[C@@H]1[C@@]24OO3 [ARTENIMOL]
Jurkat
  pIC50: 6.19
HL-60 [1]
  Activity: Active
HL-60 [2]
  Activity: 60%
PBMC [3]
  pIC50: < 3.60
HL-60 [4]
  pIC50: 5.81
HL-60 [5]
  Activity: Active
HL-60 [6]
  Activity: inactive
HL-60 [7]
  Activity: Active
HL-60 [8]
  Activity: Active

## C[C@H]1[C@@H](Oc2ccc(F)cc2)O[C@@H]2O[C@]3(C)CC[C@H]4[C@H](C)CC[C@@H]1[C@@]24O3
Jurkat
  pIC50: 4.51
HL-60 [9]
  pIC50: < 4.00
HL-60 [10]
  pIC50: 5.42
PBMC [3]
  pIC50: < 3.60
HL-60 [4]
  pIC50: 4.49
HL-60 [11]
  pIC50: 4.59
HL-60 [12]
  Activity: inactive
HL-60 [13]
  pIC50: 6.34
HL-60 [14]
  Activity: inactive

## C[C@H]1[C@@H](Oc2ccc(Br)cc2)O[C@@H]2O[C@]3(C)CC[C@H]4[C@H](C)CC[C@@H]1[C@@]24OO3
[15]
  remaining at 16 h, 10 µM: 37%
Jurkat
  pIC50: 6.47
HL-60 [2]
  Activity: 60%
[16]
  remaining at 24 h, 10 µM: 64%
PBMC [3]
  pIC50: < 3.60
HL-60 [4]
  pIC50: 6.14
HL-60 [11]
  pIC50: 6.92
[17]
  remaining at 24 h, 10 µM: 19%
HL-60 [18]
  Activity: 7%

## C[C@H]1[C@@H](Oc2ccc(F)cc2)O[C@@H]2O[C@]3(C)CC[C@H]4[C@H](C)CC[C@@H]1[C@@]24OO3
Jurkat
  pIC50: 6.64
HL-60 [2]
  Activity: 62.9%
HL-60 [9]
  pIC50: < 4.00
HL-60 [19]
  Activity: 24.3%
HL-60 [10]
  pIC50: 5.22
HL-60 [20]
  Activity: 65.8%
PBMC [3]
  pIC50: < 3.60
HL-60 [4]
  pIC50: 6.12
HL-60 [5]
  Activity: Active
HL-60 [11]
  pIC50: 6.27
HL-60 [6]
  Activity: inactive
PBMC [21]
  Activity: inactive
HL-60 [13]
  pIC50: 6.29
HL-60 [22]
  Activity: 29.8%

## COc1cccc2c1C(=O)c1c(O)c3c(c(O)c1C2=O)C[C@@](O)(C(=O)CO)C[C@@H]3O[C@H]1C[C@H](N)[C@H](O)[C@H](C)O1 [DOXORUBICIN]
Jurkat
  pIC50: 7.05
